# Results taken from PubChem BioAssay (NCI).
#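 Five compound concentrations were applied to cells in 96-well plates for 48 hours; endpoints were derived by simple linear interpolation of the resulting dose-response curve. At the GI50, growth is halved. TGI: total growth inhibition.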
# Legend:
# Test in all cases: NCI-60 cell line screen, 48 h
# TK-10 renal = test system: TK-10 renal
# CAKI-1 renal = test system: CAKI-1 renal
# SW-620 colon = test system: SW-620 colon
# MCF7 breast = test system: MCF7 breast
# SF-268 CNS = test system: SF-268 CNS
# NCI-H460 lung = test system: NCI-H460 lung
# EKVX NSCLC = test system: EKVX NSCLC
# SN12C renal = test system: SN12C renal
# MALME-3M melanoma = test system: MALME-3M melanoma
# OVCAR-8 ovarian = test system: OVCAR-8 ovarian
compound,measurement,setting,value
CC(=O)OC1CC(n2cc(F)c(=O)[nH]c2=O)OC1CO (stereo not given),TGI,TK-10 renal,> 100 µM
same,TGI,CAKI-1 renal,> 100 µM
same,TGI,SW-620 colon,> 86.8 µM
same,TGI,MCF7 breast,> 28.3 µM
same,TGI,SF-268 CNS,> 73.8 µM
same,TGI,NCI-H460 lung,> 100 µM
same,TGI,EKVX NSCLC,> 100 µM
same,TGI,SN12C renal,> 100 µM
same,TGI,MALME-3M melanoma,> 100 µM
same,TGI,OVCAR-8 ovarian,> 100 µM
CCCCCC(O)C1C(=O)OC(C)C(O)/C=C/C=C/C=C/C=C\C=C(\C)C(O)CC(O)CC(O)CC(O)CC(O)CC(O)CC1O (stereo not given),GI50,TK-10 renal,> 100 µM
same,TGI,TK-10 renal,> 100 µM
same,GI50,CAKI-1 renal,> 100 µM
same,TGI,CAKI-1 renal,> 100 µM
same,GI50,SW-620 colon,> 100 µM
same,TGI,SW-620 colon,> 100 µM
same,GI50,MCF7 breast,> 100 µM
same,TGI,MCF7 breast,> 100 µM
same,GI50,SF-268 CNS,> 100 µM
same,TGI,SF-268 CNS,> 100 µM
same,GI50,NCI-H460 lung,> 100 µM
same,TGI,NCI-H460 lung,> 100 µM
same,GI50,EKVX NSCLC,> 100 µM
same,TGI,EKVX NSCLC,> 100 µM
same,GI50,SN12C renal,> 100 µM
same,TGI,SN12C renal,> 100 µM
same,GI50,MALME-3M melanoma,> 100 µM
same,TGI,MALME-3M melanoma,> 100 µM
same,GI50,OVCAR-8 ovarian,> 100 µM
same,TGI,OVCAR-8 ovarian,> 100 µM
C=C(C)[C@@H]1CC[C@]2(C)[C@H](C(=O)C=C3[C@@H]4C[C@](C)(C(=O)N5CCN(C)CC5)CC[C@]4(C)CC[C@]32C)[C@@]1(C)CCC#N,GI50,TK-10 renal,8.16 µM
same,TGI,TK-10 renal,15.5 µM
same,GI50,CAKI-1 renal,6.27 µM
same,TGI,CAKI-1 renal,12.5 µM
same,GI50,SW-620 colon,6.99 µM
same,TGI,SW-620 colon,14.9 µM
same,GI50,MCF7 breast,5.45 µM
same,TGI,MCF7 breast,12.5 µM
same,GI50,SF-268 CNS,7.26 µM
same,TGI,SF-268 CNS,15.2 µM
same,GI50,NCI-H460 lung,6.48 µM
same,TGI,NCI-H460 lung,13.9 µM
same,GI50,EKVX NSCLC,7.24 µM
same,TGI,EKVX NSCLC,14 µM
same,GI50,SN12C renal,6.37 µM
same,TGI,SN12C renal,12.9 µM
same,GI50,MALME-3M melanoma,3.94 µM
same,TGI,MALME-3M melanoma,10.6 µM
same,GI50,OVCAR-8 ovarian,8.12 µM
same,TGI,OVCAR-8 ovarian,16.2 µM
Cc1nc2sccn2c(=O)c1CCN1CCC(=C(c2ccc(F)cc2)c2ccc(F)cc2)CC1,GI50,TK-10 renal,13.9 µM
same,TGI,TK-10 renal,27.6 µM
same,GI50,CAKI-1 renal,12.9 µM
same,TGI,CAKI-1 renal,25.7 µM
same,GI50,SW-620 colon,10.9 µM
same,TGI,SW-620 colon,24.1 µM
same,GI50,MCF7 breast,6.88 µM
same,TGI,MCF7 breast,23 µM
same,GI50,SF-268 CNS,15.9 µM
same,TGI,SF-268 CNS,32.8 µM
same,GI50,NCI-H460 lung,7.49 µM
same,TGI,NCI-H460 lung,22.7 µM
same,GI50,EKVX NSCLC,10.7 µM
same,TGI,EKVX NSCLC,24.1 µM
same,GI50,SN12C renal,14.5 µM
same,TGI,SN12C renal,29.3 µM
same,GI50,MALME-3M melanoma,11.4 µM
same,TGI,MALME-3M melanoma,25.5 µM
same,GI50,OVCAR-8 ovarian,17 µM
same,TGI,OVCAR-8 ovarian,41 µM
CS(=O)CCCCCN=C=S (stereo not given),GI50,TK-10 renal,3.83 µM
same,TGI,TK-10 renal,10.3 µM
same,GI50,CAKI-1 renal,3.69 µM
same,TGI,CAKI-1 renal,13.8 µM
same,GI50,SW-620 colon,4.1 µM
same,TGI,SW-620 colon,15.9 µM
same,GI50,MCF7 breast,2.3 µM
same,TGI,MCF7 breast,13.2 µM
same,GI50,SF-268 CNS,4.06 µM
same,TGI,SF-268 CNS,17.4 µM
same,GI50,NCI-H460 lung,2.53 µM
same,TGI,NCI-H460 lung,6.64 µM
same,GI50,EKVX NSCLC,10.4 µM
same,TGI,EKVX NSCLC,24.8 µM
same,GI50,SN12C renal,3.44 µM
same,TGI,SN12C renal,11.4 µM
same,GI50,MALME-3M melanoma,4.12 µM
same,TGI,MALME-3M melanoma,18.6 µM
same,GI50,OVCAR-8 ovarian,4.93 µM
same,TGI,OVCAR-8 ovarian,22.1 µM
COc1ccc(NC(=O)n2nc(N)c3ccccc32)cc1OC,GI50,TK-10 renal,92.4 µM
same,TGI,TK-10 renal,> 100 µM
same,GI50,CAKI-1 renal,> 100 µM
same,TGI,CAKI-1 renal,> 100 µM
same,GI50,SW-620 colon,> 100 µM
same,TGI,SW-620 colon,> 100 µM
same,GI50,MCF7 breast,29.5 µM
same,TGI,MCF7 breast,> 100 µM
same,GI50,SF-268 CNS,49.6 µM
same,TGI,SF-268 CNS,> 100 µM
same,GI50,NCI-H460 lung,34.5 µM
same,TGI,NCI-H460 lung,> 100 µM
same,GI50,EKVX NSCLC,54.1 µM
same,TGI,EKVX NSCLC,> 100 µM
same,GI50,SN12C renal,> 100 µM
same,TGI,SN12C renal,> 100 µM
same,GI50,MALME-3M melanoma,> 100 µM
same,TGI,MALME-3M melanoma,> 100 µM
same,GI50,OVCAR-8 ovarian,39.7 µM
same,TGI,OVCAR-8 ovarian,> 100 µM
O=[N+]([O-])c1ccc(-c2nc(-c3ccccc3)c(-c3ccccc3)n2-c2ccccc2)cc1,GI50,TK-10 renal,4.01 µM
same,TGI,TK-10 renal,16.9 µM
same,GI50,CAKI-1 renal,3.04 µM
same,TGI,CAKI-1 renal,> 28.4 µM
same,GI50,SW-620 colon,2.6 µM
same,TGI,SW-620 colon,9.28 µM
same,GI50,MCF7 breast,2.04 µM
same,TGI,MCF7 breast,6.28 µM
same,GI50,SF-268 CNS,3.7 µM
same,TGI,SF-268 CNS,17.6 µM
same,GI50,NCI-H460 lung,2.43 µM
same,TGI,NCI-H460 lung,7.06 µM
same,GI50,EKVX NSCLC,2.93 µM
same,TGI,EKVX NSCLC,> 26.6 µM
same,GI50,SN12C renal,2.69 µM
same,TGI,SN12C renal,12.4 µM
same,GI50,MALME-3M melanoma,2.78 µM
same,TGI,MALME-3M melanoma,8.58 µM
same,GI50,OVCAR-8 ovarian,3.19 µM
same,TGI,OVCAR-8 ovarian,> 100 µM
CCOC(=O)c1sc2nc3sc(N=Nc4ccc(Cl)cc4)c(O)n3c(=S)c2c1C,GI50,TK-10 renal,25.9 µM
same,TGI,TK-10 renal,96.4 µM
same,GI50,CAKI-1 renal,28.1 µM
same,TGI,CAKI-1 renal,57.3 µM
same,GI50,SW-620 colon,35.4 µM
same,TGI,SW-620 colon,> 100 µM
same,GI50,MCF7 breast,21.4 µM
same,TGI,MCF7 breast,> 100 µM
same,GI50,SF-268 CNS,19.7 µM
same,TGI,SF-268 CNS,82 µM
same,GI50,NCI-H460 lung,25.9 µM
same,TGI,NCI-H460 lung,> 100 µM
same,GI50,EKVX NSCLC,5.43 µM
same,TGI,EKVX NSCLC,39.6 µM
same,GI50,SN12C renal,15.5 µM
same,TGI,SN12C renal,46.5 µM
same,GI50,MALME-3M melanoma,34.9 µM
same,TGI,MALME-3M melanoma,95 µM
same,GI50,OVCAR-8 ovarian,29.4 µM
same,TGI,OVCAR-8 ovarian,95.6 µM
COc1cccc(C2C(C#N)=C(N)Oc3cc(N)ccc32)c1 (stereo not given),GI50,TK-10 renal,2.83 µM
same,TGI,TK-10 renal,> 100 µM
same,GI50,CAKI-1 renal,0.47 µM
same,TGI,CAKI-1 renal,> 100 µM
same,GI50,SW-620 colon,0.312 µM
same,TGI,SW-620 colon,> 100 µM
same,GI50,MCF7 breast,0.314 µM
same,TGI,MCF7 breast,> 100 µM
same,GI50,SF-268 CNS,1.57 µM
same,TGI,SF-268 CNS,> 100 µM
same,GI50,NCI-H460 lung,0.368 µM
same,TGI,NCI-H460 lung,> 87 µM
same,GI50,EKVX NSCLC,0.854 µM
same,TGI,EKVX NSCLC,> 100 µM
same,GI50,SN12C renal,0.689 µM
same,TGI,SN12C renal,> 100 µM
same,GI50,MALME-3M melanoma,0.632 µM
same,TGI,MALME-3M melanoma,> 100 µM
same,GI50,OVCAR-8 ovarian,0.649 µM
same,TGI,OVCAR-8 ovarian,> 60.9 µM
NC(N)=NS(=O)(=O)c1ccc(NCc2c3ccccc3nc3ccccc23)cc1,TGI,TK-10 renal,> 88 µM
same,TGI,CAKI-1 renal,69.2 µM
same,TGI,SW-620 colon,> 87.7 µM
same,TGI,MCF7 breast,17.5 µM
same,TGI,SF-268 CNS,23.1 µM
same,TGI,NCI-H460 lung,19.2 µM
same,TGI,EKVX NSCLC,> 71.7 µM
same,TGI,SN12C renal,41.3 µM
same,TGI,MALME-3M melanoma,49.7 µM
same,TGI,OVCAR-8 ovarian,53.8 µM
COc1ccc(C(=O)c2ccc(OC)c(OC)c2OC)cc1,GI50,TK-10 renal,2.85 µM
same,TGI,TK-10 renal,> 100 µM
same,GI50,CAKI-1 renal,1.21 µM
same,TGI,CAKI-1 renal,> 100 µM
same,GI50,SW-620 colon,0.377 µM
same,TGI,SW-620 colon,> 100 µM
same,GI50,MCF7 breast,0.697 µM
same,TGI,MCF7 breast,> 100 µM
same,GI50,SF-268 CNS,5.2 µM
same,TGI,SF-268 CNS,> 100 µM
same,GI50,NCI-H460 lung,1.99 µM
same,TGI,NCI-H460 lung,11.6 µM
same,GI50,EKVX NSCLC,4.77 µM
same,TGI,EKVX NSCLC,> 100 µM
same,GI50,SN12C renal,8.33 µM
same,TGI,SN12C renal,> 100 µM
same,GI50,MALME-3M melanoma,1.77 µM
same,TGI,MALME-3M melanoma,> 100 µM
same,GI50,OVCAR-8 ovarian,3 µM
same,TGI,OVCAR-8 ovarian,> 100 µM
CCN(CC)CCCNc1cccc2c(SCc3ccccc3)ccnc12,GI50,TK-10 renal,1.56 µM
same,TGI,TK-10 renal,2.98 µM
same,GI50,CAKI-1 renal,1.59 µM
same,TGI,CAKI-1 renal,3.21 µM
same,GI50,SW-620 colon,1.7 µM
same,TGI,SW-620 colon,3.46 µM
same,GI50,MCF7 breast,1.62 µM
same,TGI,MCF7 breast,3.16 µM
same,GI50,SF-268 CNS,1.51 µM
same,TGI,SF-268 CNS,3.33 µM
same,GI50,NCI-H460 lung,1.7 µM
same,TGI,NCI-H460 lung,3.45 µM
same,GI50,EKVX NSCLC,2.24 µM
same,TGI,EKVX NSCLC,6.71 µM
same,GI50,SN12C renal,1.81 µM
same,TGI,SN12C renal,12.6 µM
same,GI50,MALME-3M melanoma,2.13 µM
same,TGI,MALME-3M melanoma,4 µM
same,GI50,OVCAR-8 ovarian,3.41 µM
same,TGI,OVCAR-8 ovarian,11.5 µM
